This note sets out measurements from patent publication US9975888B2, “Aryl linked imidazole and triazole derivatives and methods of use thereof for improving the pharmacokinetics of a drug” (MERCK SHARP & DOHME CORP., priority 2013, dated 2018).

Structures are written as SMILES. Like-named read-outs stand apart in the source and are kept apart here. Where only a bound is given, the exact number is not on record here.

Format in all cases: biochemical
Assay [1] has as its target T1, CYP2C19 (Homo sapiens, UniProt P33261).
T1 construct: 0.1 mg/mL protein human liver microsomes (BD Gentest); tissue BD Gentest; host or cells: human liver microsomes
In words: Cocktail assay for CYPs, mephenytoin 4′-hydroxylation (CYP2C19), human liver microsomes. The settings on record: 0.1 mg/mL human liver microsomes, 10 min at 37° C. In short, it runs like this: (§1)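 Pooled human liver microsomes (0.1 mg/mL) with probe cocktail incl. 5 μM diclofenac (CYP2C9) and 30 μM mephenytoin (CYP2C19), 1 mM NADPH, pH 7.4 phosphate buffer, 10 min at 37° C. Metabolites quantified by LC/MS/MS against internal standard; % inhibition versus no-inhibitor control, IC50 by non-linear regression.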
(Liver microsomes are vesicles of endoplasmic reticulum, rich in cytochrome P450 enzymes.)

Assay [2] deals with T2, CYP3A4 (Homo sapiens, UniProt P08684). In words: IC50 vs CYP3A by inhibition of lopinavir metabolism in human liver microsomes. As to conditions: 1.5 μM lopinavir, 0.01 mg/mL human liver microsomes, 8 min at 37° C.; read-out: CYP IC50 (nM) 3A4 (LPV). Also on record: 0.01 mg/mL protein human liver microsomes (BD Gentest); tissue BD Gentest; host or cells: human liver microsomes. A digest of the protocol:
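Human liver microsomes (0.01 mg/mL) with 1.5 μM lopinavir, 1 mM NADPH, 3.3 mM MgCl2 in 100 mM potassium phosphate pH 7.4, 8 min at 37 °C, six compound concentrations. Summed M2/M3/M4 hydroxy metabolites quantified by LC/MS/MS against tolbutamide; % inhibition normalised between no-inhibitor and 5 μM ketoconazole controls, IC50 by non-linear regression.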
Target sequence in this assay (P08684 2-503): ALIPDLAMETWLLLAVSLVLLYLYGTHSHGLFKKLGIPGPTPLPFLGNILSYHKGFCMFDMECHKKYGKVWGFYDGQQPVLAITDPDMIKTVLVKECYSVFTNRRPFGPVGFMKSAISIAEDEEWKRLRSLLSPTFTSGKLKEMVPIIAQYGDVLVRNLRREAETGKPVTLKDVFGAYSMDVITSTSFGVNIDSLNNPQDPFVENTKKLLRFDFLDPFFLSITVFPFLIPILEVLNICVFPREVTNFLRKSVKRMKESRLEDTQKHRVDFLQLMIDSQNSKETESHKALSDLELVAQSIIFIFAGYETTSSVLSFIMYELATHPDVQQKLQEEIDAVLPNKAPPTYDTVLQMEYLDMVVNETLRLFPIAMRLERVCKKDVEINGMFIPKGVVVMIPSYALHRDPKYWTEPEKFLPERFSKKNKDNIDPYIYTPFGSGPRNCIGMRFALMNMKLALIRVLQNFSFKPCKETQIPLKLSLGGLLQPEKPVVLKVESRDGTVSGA

Assay [3] deals with T3, CYP1A2 (Homo sapiens, UniProt P05177).
T3 construct: 0.1 mg/mL protein human liver microsomes (BD Gentest); tissue BD Gentest; host or cells: human liver microsomes
T3 sequence (P05177 1-516): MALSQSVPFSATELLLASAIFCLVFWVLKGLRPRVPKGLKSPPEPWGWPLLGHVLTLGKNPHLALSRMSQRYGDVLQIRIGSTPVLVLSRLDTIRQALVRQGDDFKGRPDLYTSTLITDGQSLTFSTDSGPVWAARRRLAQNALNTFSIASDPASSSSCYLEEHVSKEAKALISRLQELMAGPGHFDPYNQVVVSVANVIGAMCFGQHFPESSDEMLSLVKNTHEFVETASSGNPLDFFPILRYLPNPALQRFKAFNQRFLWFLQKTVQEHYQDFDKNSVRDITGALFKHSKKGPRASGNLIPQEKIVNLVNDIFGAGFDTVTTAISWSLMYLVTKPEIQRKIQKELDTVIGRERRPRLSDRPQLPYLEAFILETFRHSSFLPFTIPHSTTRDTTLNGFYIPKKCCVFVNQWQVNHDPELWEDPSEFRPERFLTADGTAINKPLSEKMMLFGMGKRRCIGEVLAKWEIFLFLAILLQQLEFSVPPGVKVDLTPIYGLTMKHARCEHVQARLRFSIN
The experiment in a line: Cocktail assay for CYPs, phenacetin O-deethylation (CYP1A2), human liver microsomes. The settings on record: 10 μM phenacetin, 0.1 mg/mL human liver microsomes, 10 min at 37° C.; read-out: CYP IC50 (nM) 1A2. A digest of the protocol:
(§2)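 Pooled human liver microsomes (0.1 mg/mL) with a probe cocktail of 10 μM phenacetin, 5 μM dextromethorphan and 2 μM midazolam plus NADPH, pH 7.4, 10 min at 37° C. Each metabolite was quantified by LC/MS/MS against a tolbutamide internal standard. IC50 came from % inhibition at 6 concentrations (e.g. 0.0032–10 μM) by non-linear regression.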

Assay [4] has as its target T2, CYP3A4. The experiment in a line: Cocktail assay for CYPs, midazolam 1′-hydroxylation (CYP3A4), human liver microsomes. More on the design: 0.1 mg/mL protein human liver microsomes (BD Gentest); tissue BD Gentest; host or cells: human liver microsomes. As to conditions: 2 μM midazolam, 0.1 mg/mL human liver microsomes, 10 min at 37° C.; read-out: CYP IC50 (nM) 3A4 (MDZ). In short, it runs like this: as §2
Target sequence in this assay (P08684 whole entry): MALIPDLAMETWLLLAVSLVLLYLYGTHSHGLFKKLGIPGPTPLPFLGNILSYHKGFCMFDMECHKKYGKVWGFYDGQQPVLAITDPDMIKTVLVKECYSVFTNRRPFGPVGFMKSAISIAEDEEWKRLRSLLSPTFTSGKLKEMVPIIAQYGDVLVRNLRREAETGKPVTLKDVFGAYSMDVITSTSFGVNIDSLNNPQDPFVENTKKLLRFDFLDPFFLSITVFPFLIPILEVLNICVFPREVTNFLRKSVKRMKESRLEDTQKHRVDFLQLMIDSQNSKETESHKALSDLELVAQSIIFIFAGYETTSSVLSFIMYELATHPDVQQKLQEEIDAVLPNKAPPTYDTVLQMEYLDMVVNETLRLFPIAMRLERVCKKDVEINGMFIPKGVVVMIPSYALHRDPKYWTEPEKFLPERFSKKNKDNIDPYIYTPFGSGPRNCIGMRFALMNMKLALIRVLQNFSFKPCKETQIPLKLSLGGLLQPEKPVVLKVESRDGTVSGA

Assay [5] addresses T4, CYP2C9 (Homo sapiens, UniProt P11712).
T4 construct: 0.1 mg/mL protein human liver microsomes (BD Gentest); tissue BD Gentest; host or cells: human liver microsomes
In words: Cocktail assay for CYPs, diclofenac 4′-hydroxylation (CYP2C9), human liver microsomes. The settings on record: 0.1 mg/mL human liver microsomes, 10 min at 37° C. A digest of the protocol: as §1

The target in assay [6] is T5, CYP2D6 (Homo sapiens, UniProt P10635).
T5 construct: 0.1 mg/mL protein human liver microsomes (BD Gentest); tissue BD Gentest; host or cells: human liver microsomes
T5 sequence (P10635 whole entry): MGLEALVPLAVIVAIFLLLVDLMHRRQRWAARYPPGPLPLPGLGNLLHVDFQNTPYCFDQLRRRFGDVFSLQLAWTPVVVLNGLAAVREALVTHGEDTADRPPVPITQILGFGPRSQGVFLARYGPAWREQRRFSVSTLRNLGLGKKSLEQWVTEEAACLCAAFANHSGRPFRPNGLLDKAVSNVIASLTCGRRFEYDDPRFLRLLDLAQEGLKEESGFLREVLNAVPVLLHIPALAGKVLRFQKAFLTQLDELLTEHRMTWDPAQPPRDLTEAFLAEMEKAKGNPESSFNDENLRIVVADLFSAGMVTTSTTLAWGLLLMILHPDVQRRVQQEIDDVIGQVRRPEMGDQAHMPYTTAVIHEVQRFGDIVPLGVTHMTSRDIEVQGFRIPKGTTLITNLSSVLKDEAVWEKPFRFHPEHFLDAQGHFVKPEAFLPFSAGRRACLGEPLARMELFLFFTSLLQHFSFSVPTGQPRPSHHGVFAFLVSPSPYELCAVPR
The experiment in a line: Cocktail assay for CYPs, dextromethorphan O-demethylation (CYP2D6), human liver microsomes. The settings on record: 5 μM dextromethorphan, 0.1 mg/mL human liver microsomes, 10 min at 37° C.; read-out: CYP IC50 (nM) 2D6. In short, it runs like this: as §2

[7] abbreviates: 30 μM mephenytoin, read-out: CYP IC50 (nM) 2C19.
[8] abbreviates: 5 μM diclofenac, read-out: CYP IC50 (nM) 2C9.

T1 sequence (P33261 whole entry): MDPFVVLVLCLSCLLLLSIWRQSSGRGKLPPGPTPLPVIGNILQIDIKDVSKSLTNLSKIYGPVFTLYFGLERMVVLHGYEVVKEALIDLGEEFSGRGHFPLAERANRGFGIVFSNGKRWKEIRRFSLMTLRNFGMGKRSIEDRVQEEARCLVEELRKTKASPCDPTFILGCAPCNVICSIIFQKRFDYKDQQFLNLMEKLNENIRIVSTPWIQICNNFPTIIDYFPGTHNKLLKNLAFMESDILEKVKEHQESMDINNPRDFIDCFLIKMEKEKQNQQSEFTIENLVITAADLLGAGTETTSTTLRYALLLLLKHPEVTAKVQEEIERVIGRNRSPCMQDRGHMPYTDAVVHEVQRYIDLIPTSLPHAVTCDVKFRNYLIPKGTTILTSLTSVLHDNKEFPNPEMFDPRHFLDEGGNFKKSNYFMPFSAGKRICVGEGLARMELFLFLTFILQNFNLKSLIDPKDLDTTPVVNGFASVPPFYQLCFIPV
T4 sequence (P11712 whole entry): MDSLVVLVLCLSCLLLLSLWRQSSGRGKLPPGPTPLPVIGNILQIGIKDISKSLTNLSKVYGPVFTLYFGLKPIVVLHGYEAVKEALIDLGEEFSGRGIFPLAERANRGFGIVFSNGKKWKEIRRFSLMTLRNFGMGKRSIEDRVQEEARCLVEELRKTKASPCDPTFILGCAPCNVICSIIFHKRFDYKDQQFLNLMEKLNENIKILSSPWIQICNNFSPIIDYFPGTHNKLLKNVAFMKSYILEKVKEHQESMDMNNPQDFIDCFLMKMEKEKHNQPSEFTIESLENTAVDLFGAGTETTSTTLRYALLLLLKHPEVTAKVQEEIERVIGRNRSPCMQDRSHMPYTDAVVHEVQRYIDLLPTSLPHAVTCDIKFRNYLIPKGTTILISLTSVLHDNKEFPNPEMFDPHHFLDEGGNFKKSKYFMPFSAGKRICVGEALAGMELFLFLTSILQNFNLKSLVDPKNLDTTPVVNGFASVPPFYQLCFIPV

As to `C[C@H](NS(=O)(=O)c1cnc(N2CCN3C[C@H](O)C[C@H]3C2)s1)c1ccccc1-c1cncn1CCc1ccc(F)cc1` [Compound 6b, N-((S)-1-(2-(1-(4-fluorophenethyl)-1H-imidazol-5-yl)phenyl)ethyl)-2-((7R,8aS)-7-hydroxy-hexahydro-pyrrolo[1,2-a]pyrazin-2(1H)-yl)thiazole-5-sulfonamide], the half-maximal inhibitory concentration (IC50) in assay [1] (CYP IC50 (nM) 2C19, 30 μM mephenytoin) is more than 10000 nM; in assay [2] it was 40.3 nM; in assay [3] it was more than 10000 nM; in assay [4] it was 30 nM; in assay [5] (CYP IC50 (nM) 2C9, 5 μM diclofenac), 5450 nM; in assay [6], 3500 nM.
Regarding `Cn1cncc1-c1ccccc1C1CCCN1S(=O)(=O)c1cnc(N2CCN3C[C@H](O)C[C@H]3C2)s1` (stereo partly drawn) [Compound 24, (7R,8aS)-2-(5-((2-(2-(1-methyl-1H-imidazol-5-yl)phenyl)pyrrolidin-1-yl)sulfonyl)thiazol-2-yl)octahydro-pyrrolo[1,2-a] pyrazin-7-ol], the IC50 in assay [1] (setting [7]) is more than 10000 nM; in assay [2] it was 29.5 nM; in assay [3], more than 10000 nM; in assay [4] it was 32.5 nM; in assay [5] (setting [8]), more than 10000 nM; in assay [6], more than 10000 nM.
As for `CC(=O)Nc1ncc(S(=O)(=O)NC2(c3ccc(-c4cncn4[C@H](C)c4ccc(F)cc4)cc3)CC2)s1` [Compound 10, (R)—N-(5-(N-(1-(4-(1-(1-(4-fluorophenyl)ethyl)-1H-imidazol-5-yl)phenyl)cyclopropyl)sulfamoyl)thiazol-2-yl)acetamide], the IC50 in assay [1] (setting [7]) is more than 10000 nM; in assay [2] it was more than 100 nM; in assay [3], 8480 nM; in assay [4], 192 nM; in assay [5] (setting [8]), more than 10000 nM; in assay [6] it was 9200 nM.
As to `O=S(=O)(c1ccc(NCC(O)C2CC2)nc1)N1CCCC1c1ccccc1-c1cncn1CCc1ccc(F)cc1` (single isomer, unassigned) [Compound 34a, 1-cyclopropyl-2-((5-(((R or S)-2-(2-(1-(4-fluorophenethyl)-1H-imidazol-5-yl)phenyl)pyrrolidin-1-yl)sulfonyl)pyridin-2-yl)amino)ethanol], the IC50 in assay [1] (setting [7]) came out at 2680 nM; in assay [2] it was 4.5 nM; in assay [3] it was 7020 nM; in assay [4] it was 10.4 nM; in assay [5] (setting [8]) it was 2620 nM; in assay [6] it was 1670 nM.
As for `O=S(=O)(c1ccc(N2CCC(O)CC2)nc1)N1CCCC1c1cccc(-c2cncn2CCc2ccc(F)cc2)c1` (single isomer, unassigned) [Compound 57b, (R or S)-1-(5-((2-(3-(1-(4-fluorophenethyl)-1H-imidazol-5-yl)phenyl)pyrrolidin-1-yl)sulfonyl)pyridin-2-yl) piperidin-4-ol], the IC50 turned out to be 393 nM in assay [1] (setting [7]); 1.4 nM in assay [2]; 190 nM in assay [3]; 4.52 nM in assay [4]; 209 nM in assay [5] (setting [8]); 2230 nM in assay [6].
With `O=C(c1ccc(N2CCOCC2)nc1)N1CCCC1c1ccccc1-c1cncn1CCc1ccc(F)cc1` (single isomer, unassigned) [Compound 43b, (R or S)-(2-(2-(1-(4-fluorophenethyl)-1H-imidazol-5-yl)phenyl)pyrrolidin-1-yl) (6-morpholino-pyridin-3-yl) methanone], the IC50 in assay [1] (setting [7]) is more than 10000 nM; in assay [2] it was 2 nM; in assay [3], 4490 nM; in assay [4] it was 5.8 nM; in assay [5] (setting [8]) it was 7950 nM; in assay [6], 5360 nM.
For `O=S(=O)(c1ccc2c(c1)OCO2)N1CCCC1c1ccccc1-c1cncn1CCc1ccc(F)cc1` (stereo not drawn) [Compound 26, 5-(2-(1-(benzo[d][1,3]dioxol-5-ylsulfonyl)pyrrolidin-2-yl)phenyl)-1-(4-fluorophenethyl)-1H-imidazole], the IC50 was determined as 1360 nM in assay [1] (setting [7]); 1 nM in assay [2]; 5020 nM in assay [3]; 3.8 nM in assay [4]; 1160 nM in assay [5] (setting [8]); 1650 nM in assay [6].
In the case of `CC(=O)Nc1ncc(S(=O)(=O)N2CCCC2c2ccc(-c3cncn3CCc3ccc(F)cc3)cc2)s1` (stereo not drawn) [Compound 8, N-(5-((2-(4-(1-(4-fluorophenethyl)-1H-imidazol-5-yl)phenyl)pyrrolidin-1-yl)sulfonyl)thiazol-2-yl)acetamide], the IC50 in assay [1] (setting [7]) was 281 nM; in assay [2], 1.9 nM; in assay [3], 8560 nM; in assay [4], 4.4 nM; in assay [5] (setting [8]), 565 nM; in assay [6] it was 1200 nM.
On to `C[C@H](c1ccc(F)cc1)n1cncc1-c1ccc2c(c1)CN(S(=O)(=O)c1cnc(N)s1)CC2` [Compound 2, (R)-5-((7-(1-(1-(4-fluorophenyl)ethyl)-1H-imidazol-5-yl)-3,4-dihydroisoquinolin-2(1H)-yl)sulfonyl)thiazol-2-amine], for which the IC50 was found to be 121 nM in assay [1] (setting [7]); 17 nM in assay [2]; 2610 nM in assay [3]; 39 nM in assay [4]; 505 nM in assay [5] (setting [8]); 288 nM in assay [6].
Regarding `CS(=O)(=O)N1CCCC1c1ccccc1-c1cncn1CCc1ccc(F)cc1` (single isomer, unassigned) [Compound 23a, (R or S)-1-(4-fluorophenethyl)-5-(2-(1-(methylsulfonyl)pyrrolidin-2-yl)phenyl)-1H-imidazole], the IC50 in assay [1] (setting [7]) was 6920 nM; in assay [2] it was 58.5 nM; in assay [3] it was more than 10000 nM; in assay [4] it was 36.4 nM; in assay [5] (setting [8]), more than 10000 nM; in assay [6] it was 6720 nM.
With `O=C(Oc1ccc(Cl)cc1)N1CCCC1c1ccccc1-c1cncn1CCc1ccc(F)cc1` (stereo not drawn) [Compound 36, 4-chlorophenyl 2-(2-(1-(4-fluorophenethyl)-1H-imidazol-5-yl)phenyl) pyrrolidine-1-carboxylate], the IC50 in assay [1] (setting [7]) is 1680 nM; in assay [2] it was 7 nM; in assay [3] it was 7690 nM; in assay [4], 19.4 nM; in assay [5] (setting [8]), 1900 nM; in assay [6] it was 3700 nM.
For `CC(NS(=O)(=O)c1cnc(N2CCN(C)CC2)s1)c1ccc(-c2cncn2CCc2ccc(F)cc2)cc1` (stereo not drawn) [Compound 3, N-(1-(4-(1-(4-fluorophenethyl)-1H-imidazol-5-yl)phenyl)ethyl)-2-(4-methylpiperazin-1-yl)thiazole-5-sulfonamide], the IC50 in assay [1] (setting [7]) was more than 10000 nM; in assay [2], 14 nM; in assay [3] it was more than 10000 nM; in assay [4], 22 nM; in assay [5] (setting [8]), 4300 nM; in assay [6], 2530 nM.
Regarding `CN1CCN(c2ncc(S(=O)(=O)N3CCCC3c3ccc(-c4cncn4CCc4ccc(F)cc4)cc3)s2)CC1` (stereo not drawn) [Compound 9, 5-((2-(4-(1-(4-fluorophenethyl)-1H-imidazol-5-yl)phenyl)pyrrolidin-1-yl)sulfonyl)-2-(4-methylpiperazin-1-yl)thiazole], the IC50 in assay [1] (setting [7]) was 148 nM; in assay [2], 2.4 nM; in assay [3], more than 10000 nM; in assay [4] it was 9 nM; in assay [5] (setting [8]), 684 nM; in assay [6], 2100 nM.

A word on the IC50: it is the concentration that gives 50% inhibition.
